According to PMC3185947 (British Journal of Cancer, 2011):
Marks after values point to notes of the source that are not given here.

What was measured:
[1] = tested on: patients with previously treated advanced NSCLC; assay: Erlotinib-related toxicities (worst grade per patient), NCI CTC Version 2.0; type: in vivo, human
[2] = in vivo
Excerpt: PK parameters were estimated by non-compartmental methods (WinNonlin v.3.1, Pharsight Corp., Mountain View, CA, USA).

[3] = tested on: patients receiving erlotinib 150 mg per day; parameters: method as in earlier work; settings: ref Shepherd et al, 2005, Perez-Soler and Van Cutsem, 2007; cited from earlier work
[4] = erlotinib 175–200 mg (N=13), non-cutaneous dose limiting toxicity reported
[5] = erlotinib 225–275 mg (N=18), non-cutaneous dose limiting toxicity reported
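Throughout, for Interpatient and intrapatient variability of PK: pharmacokinetic parameters derived by non-compartmental analysis.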
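Throughout, for Relationships between dose and both AUC0–24 and Cmax (Spearman rank correlation): pharmacokinetic parameters derived by non-compartmental analysis.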

C#Cc1cccc(Nc2ncnc3cc(OCCOC)c(OCCOC)cc23)c1 [erlotinib]
Anorexia, grade 3–4 ([1]; erlotinib 175–200 mg (N=13)): 0 (0) n (%) | Anorexia, grade Any ([1]; erlotinib 175–200 mg (N=13)): 0 (0) n (%) | Creatinine, grade Any ([1]; erlotinib 175–200 mg (N=13)): 1 (8) n (%) | Diarrhea, grade 3–4 ([1]; erlotinib 175–200 mg (N=13)): 0 (0) n (%) | Diarrhea, grade Any ([1]; erlotinib 175–200 mg (N=13)): 9 (69) n (%) | Epistaxis, grade 3–4 ([1]; erlotinib 175–200 mg (N=13)): 0 (0) n (%) | Epistaxis, grade Any ([1]; erlotinib 175–200 mg (N=13)): 0 (0) n (%) | Fatigue, grade Any ([1]; erlotinib 175–200 mg (N=13)): 4 (31) n (%) | Headache, grade 3–4 ([1]; erlotinib 175–200 mg (N=13)): 0 (0) n (%) | Headache, grade Any ([1]; erlotinib 175–200 mg (N=13)): 0 (0) n (%) | Nausea, grade 3–4 ([1]; erlotinib 175–200 mg (N=13)): 0 (0) n (%) | Nausea, grade Any ([1]; erlotinib 175–200 mg (N=13)): 5 (38) n (%) | Paronychia, grade 3–4 ([1]; erlotinib 175–200 mg (N=13)): 0 (0) n (%) | Paronychia, grade Any ([1]; erlotinib 175–200 mg (N=13)): 0 (0) n (%) | Skin fissures, grade 3–4 ([1]; erlotinib 175–200 mg (N=13)): 0 (0) n (%) | Skin fissures, grade Any ([1]; erlotinib 175–200 mg (N=13)): 0 (0) n (%) | Stomatitis, grade 3–4 ([1]; erlotinib 175–200 mg (N=13)): 0 (0) n (%) | Stomatitis, grade Any ([1]; erlotinib 175–200 mg (N=13)): 5 (38) n (%) | Vomiting, grade 3–4 ([1]; erlotinib 175–200 mg (N=13)): 0 (0) n (%) | Vomiting, grade Any ([1]; erlotinib 175–200 mg (N=13)): 5 (38) n (%) | Creatinine, grade 3–4 [1, 4]: 1 (8) ^a n (%) | Fatigue, grade 3–4 [1, 4]: 1 (8) ^a n (%) | Alopecia, grade 3–4 ([1]; erlotinib 225–275 mg (N=18)): 0 (0) n (%) | Alopecia, grade Any ([1]; erlotinib 225–275 mg (N=18)): 4 (22) n (%) | Anorexia, grade Any ([1]; erlotinib 225–275 mg (N=18)): 6 (33) n (%) | Creatinine, grade 3–4 ([1]; erlotinib 225–275 mg (N=18)): 0 (0) n (%) | Creatinine, grade Any ([1]; erlotinib 225–275 mg (N=18)): 0 (0) n (%) | Diarrhea, grade 3–4 ([1]; erlotinib 225–275 mg (N=18)): 1 (6) n (%) | Diarrhea, grade Any ([1]; erlotinib 225–275 mg (N=18)): 13 (72) n (%) | Epistaxis, grade 3–4 ([1]; erlotinib 225–275 mg (N=18)): 0 (0) n (%) | Epistaxis, grade Any ([1]; erlotinib 225–275 mg (N=18)): 3 (17) n (%) | Fatigue, grade Any ([1]; erlotinib 225–275 mg (N=18)): 6 (33) n (%) | Headache, grade Any ([1]; erlotinib 225–275 mg (N=18)): 1 (6) n (%) | Nausea, grade 3–4 ([1]; erlotinib 225–275 mg (N=18)): 0 (0) n (%) | Nausea, grade Any ([1]; erlotinib 225–275 mg (N=18)): 9 (50) n (%) | Paronychia, grade 3–4 ([1]; erlotinib 225–275 mg (N=18)): 0 (0) n (%) | Paronychia, grade Any ([1]; erlotinib 225–275 mg (N=18)): 3 (17) n (%) | Skin fissures, grade 3–4 ([1]; erlotinib 225–275 mg (N=18)): 1 (6) n (%) | Skin fissures, grade Any ([1]; erlotinib 225–275 mg (N=18)): 2 (11) n (%) | Stomatitis, grade 3–4 ([1]; erlotinib 225–275 mg (N=18)): 0 (0) n (%) | Stomatitis, grade Any ([1]; erlotinib 225–275 mg (N=18)): 6 (33) n (%) | Vomiting, grade 3–4 ([1]; erlotinib 225–275 mg (N=18)): 0 (0) n (%) | Vomiting, grade Any ([1]; erlotinib 225–275 mg (N=18)): 5 (28) n (%) | Anorexia, grade 3–4 [1, 5]: 1 (6) ^a n (%) | Fatigue, grade 3–4 [1, 5]: 2 (11) ^a n (%) | Headache, grade 3–4 [1, 5]: 1 (6) ^a n (%) | Alopecia, grade 3–4 ([1]; erlotinib ⩾300 mg (N=7)): 0 (0) n (%) | Alopecia, grade Any ([1]; erlotinib ⩾300 mg (N=7)): 2 (29) n (%) | Anorexia, grade 3–4 ([1]; erlotinib ⩾300 mg (N=7)): 0 (0) n (%) | Anorexia, grade Any ([1]; erlotinib ⩾300 mg (N=7)): 3 (43) n (%) | Creatinine, grade 3–4 ([1]; erlotinib ⩾300 mg (N=7)): 0 (0) n (%) | Creatinine, grade Any ([1]; erlotinib ⩾300 mg (N=7)): 0 (0) n (%) | Diarrhea, grade 3–4 ([1]; erlotinib ⩾300 mg (N=7)): 0 (0) n (%) | Diarrhea, grade Any ([1]; erlotinib ⩾300 mg (N=7)): 7 (100) n (%) | Epistaxis, grade 3–4 ([1]; erlotinib ⩾300 mg (N=7)): 0 (0) n (%) | Epistaxis, grade Any ([1]; erlotinib ⩾300 mg (N=7)): 2 (29) n (%) | Fatigue, grade 3–4 ([1]; erlotinib ⩾300 mg (N=7)): 0 (0) n (%) | Fatigue, grade Any ([1]; erlotinib ⩾300 mg (N=7)): 4 (57) n (%) | Headache, grade 3–4 ([1]; erlotinib ⩾300 mg (N=7)): 0 (0) n (%) | Headache, grade Any ([1]; erlotinib ⩾300 mg (N=7)): 0 (0) n (%) | Nausea, grade 3–4 ([1]; erlotinib ⩾300 mg (N=7)): 0 (0) n (%) | Nausea, grade Any ([1]; erlotinib ⩾300 mg (N=7)): 5 (71) n (%) | Paronychia, grade Any ([1]; erlotinib ⩾300 mg (N=7)): 2 (29) n (%) | Skin fissures, grade 3–4 ([1]; erlotinib ⩾300 mg (N=7)): 0 (0) n (%) | Skin fissures, grade Any ([1]; erlotinib ⩾300 mg (N=7)): 2 (29) n (%) | Stomatitis, grade 3–4 ([1]; erlotinib ⩾300 mg (N=7)): 0 (0) n (%) | Stomatitis, grade Any ([1]; erlotinib ⩾300 mg (N=7)): 1 (14) n (%) | Vomiting, grade 3–4 ([1]; erlotinib ⩾300 mg (N=7)): 0 (0) n (%) | Vomiting, grade Any ([1]; erlotinib ⩾300 mg (N=7)): 3 (43) n (%) | Paronychia, grade 3–4 ([1]; erlotinib ⩾300 mg (N=7), non-cutaneous dose limiting toxicity reported): 1 (14) ^a n (%) | Non-cutaneous DLT: grade 3 anorexia ([1]; human, in vivo): one | Non-cutaneous DLT: grade 3 creatinine elevation ([1]; human, in vivo): one | Non-cutaneous DLT: grade 3 fatigue ([1]; human, in vivo): three | Non-cutaneous DLT: grade 3 headache ([1]; human, in vivo): one | Non-cutaneous DLT: grade 3 paronychia ([1]; human, in vivo): one | Patients who discontinued treatment due to protracted grade 3 anorexia and grade 2 nausea ([1]; human, in vivo): One | Patients who experienced non-cutaneous DLT ([1]; of 42 patients): Seven | Relationships between dose and both AUC0–24 and Cmax (Spearman rank correlation) ([2]; human): did not reveal any significant deviation from dose proportionality | Interpatient and intrapatient variability of PK [2]: High | Patients who developed NCI CTC grade 2 or 3 rash [3]: ~30%
